Patent US20250281462A1, “THERAPEUTICALLY EFFECTIVE ORAL ADMINISTRATION OF A 2 ARYLBENZIMIDAZOLE” (Tranquis Therapeutics, Inc., priority 2021, published 2025)
Several values for one entry are separate records, joined by “and”; a condition that tells them apart may be missing. Identical values can stand only once.

How the values were obtained:
[1] = Plasma and brain concentrations after single oral dose 45 mg/kg in mice; assay type: in vivo; conditions: TQS-168 45 mg/kg p.o.
Method: Mice were administered a single oral dose of 45 mg/kg TQS-168. TQS-168 was prepared at a concentration of 5.0 mg/mL as a solution in 10% polyethylene glycol (PEG) 400|130% Kleptose (Roquette) 60% water.
Concentrations in plasma and in brain were measured at various timepoints and various pharmacokinetic parameters were calculated, as shown below in Tables 4 and 5 and in FIGS. 19A and 19B.
TQS-168 was prepared as a 4.5 mg/ml solution in PEG400 10%| Kleptose 30% sterile water 60%. A single oral dose of 45 mg/kg was administered. Concentrations of TQS-621 were measured in plasma and brain over time.

[2] = Plasma concentrations of TQS-168 and TQS-621 after single oral dose 50 mg/kg in mice, three formulations; assay type: in vivo; conditions: mice plasma, TQS-168 50 mg/kg p.o.
Method: In a second experiment, mice were administered 50 mg/kg TQS-168 by oral gavage. For Group 1, TQS-168 was prepared at a concentration of 5.0 mg/mL in a suspension with […] in PBS. For Group 2, TQS-168 was prepared at a concentration of 5.0 mg/mL as a solution in 10 polyethylene glycol (PEG) 400|30 Kleptose (Roquete)|60% water.
Plasma exposures for Group 1 mice (ng/mL) are presented in Table 2 and for Group 2 mice in Table 3.
C57BL/6 male mice were administered a single dose of TQS-168 at 50 mg/kg using one of three formulations: Group 1-5.0 mg/ml suspension in 0.5% methylcellulose in PBS; Group 2-5.0 mg/ml solution in PEG400 (Fluka) 10%|Kleptose (Roquette) 30%|sterile water 60%; Group 3-5.0 mg/ml suspension in Labrafil M 1944 CS (Gattefosse) 30%|Masine CC (Gattefosse) 5%|Miglyol 812N 10%|sterile water 55%.
Plasma concentrations of TQS-168 and TQS-621 were measured overtime.

[3] = mouse, po, mice brain, solution PEG 400/Kleptose/water
[4] = mouse, po, mice plasma, solution PEG 400/Kleptose/water
[5] = male, C57BL/6, mouse, plasma, po, 50 mg/kg, Group 1 (suspension, 0.5% methylcellulose in PBS), mean
[6] = male, C57BL/6, mouse, plasma, po, 50 mg/kg, Group 2 (solution, PEG400/Kleptose/water), individual mouse
[7] = male, C57BL/6, mouse, plasma, po, 50 mg/kg, Group 2 (solution, PEG400/Kleptose/water), mean
[8] = male, C57BL/6, mouse, plasma, po, 50 mg/kg, Group 3 (suspension, Labrafil/Masine/Miglyol/water), individual mouse
[9] = male, C57BL/6, mouse, plasma, po, 50 mg/kg, Group 3 (suspension, Labrafil/Masine/Miglyol/water), mean
[10] = Group 1 (suspension, 0.5% methylcellulose in PBS), individual mouse
[11] = Group 2 (solution, PEG400/Kleptose/water), individual mouse
[12] = Group 2 (solution, PEG400/Kleptose/water), mean
[13] = Group 3 (suspension, Labrafil/Masine/Miglyol/water), individual mouse

In the case of `CC(C)(C)c1ccc(-c2nc3cc(O)ccc3[nH]2)cc1` [TQS-621], the “AUClast Ratio (Metabolites/Parent)” value ([1]; mice brain, solution) was 0.172, the “Cmax Ratio (Metabolite/Parent)” value ([1]; mice brain, solution) was 0.159 and the AUCInf ([1]; mice brain, solution PEG 400/Kleptose/water) was 4282 ng·h/g. It also gave an AUClast ([1]; mice brain, solution PEG 400/Kleptose/water, last time point 24 hr) of 4234 ng·h/g, a Cmax [1, 3] of 678 ng/g and a Tmax [1, 3] of 4 h. For the same compound, the half-life [1, 3] was 4.85 h, the AUC(0-inf) [1, 4] was 4310 ng·h/mL and the Cmax [1, 4] was 692 ng/mL. The Tmax [1, 4] was 4 h, the AUC(0-t) ([1]; mouse, po, mice plasma, solution PEG 400/Kleptose/water, last time point 24 hr) was 4280 ng·h/mL and the Cmax ([2]; male, C57BL/6, mouse, plasma, po, 50 mg/kg, Group 1 (suspension, 0.5% methylcellulose in PBS), individual mouse, read-out: Cmax) was 239 ng/mL. For the same compound, the Tmax ([2]; male, C57BL/6, mouse, plasma, po, 50 mg/kg, Group 1 (suspension, 0.5% methylcellulose in PBS), individual mouse, read-out: tmax) was 1 h, the AUC(0-inf) [2, 5] was 8200 ng·h/mL and the AUC(0-t) [2, 5] was 1590 ng·h/mL. The half-life [2, 5] was 28.3 h, the Cmax ([2]; male, C57BL/6, mouse, plasma, po, 50 mg/kg, Group 1 (suspension, 0.5% methylcellulose in PBS), mean, read-out: Cmax) was 235 ng/mL and the Tmax ([2]; male, C57BL/6, mouse, plasma, po, 50 mg/kg, Group 1 (suspension, 0.5% methylcellulose in PBS), mean, read-out: tmax) was 1.33 h. It also gave an AUC(0-inf) [2, 6] of 3110 ng·h/mL, an AUC(0-t) [2, 6] of 2880 ng·h/mL and a half-life [2, 6] of 2.92 h. It also gave a Cmax ([2]; male, C57BL/6, mouse, plasma, po, 50 mg/kg, Group 2 (solution, PEG400/Kleptose/water), individual mouse, read-out: Cmax) of 487 ng/mL, a Tmax ([2]; male, C57BL/6, mouse, plasma, po, 50 mg/kg, Group 2 (solution, PEG400/Kleptose/water), individual mouse, read-out: tmax) of 2 h and an AUC(0-inf) [2, 7] of 2960 ng·h/mL. The AUC(0-t) [2, 7] was 2750 ng·h/mL, the half-life [2, 7] was 2.9 h and the Cmax ([2]; male, C57BL/6, mouse, plasma, po, 50 mg/kg, Group 2 (solution, PEG400/Kleptose/water), mean, read-out: Cmax) was 449 ng/mL. It also gave a Tmax ([2]; male, C57BL/6, mouse, plasma, po, 50 mg/kg, Group 2 (solution, PEG400/Kleptose/water), mean, read-out: tmax) of 1.67 h, an AUC(0-inf) [2, 8] of 612 ng·h/mL and an AUC(0-t) [2, 8] of 564 ng·h/mL. For the same compound, the Cmax ([2]; male, C57BL/6, mouse, plasma, po, 50 mg/kg, Group 3 (suspension, Labrafil/Masine/Miglyol/water), individual mouse, read-out: Cmax) was 98.9 ng/mL, the AUC(0-inf) [2, 9] was 584 ng·h/mL and the AUC(0-t) [2, 9] was 533 ng·h/mL. The half-life [2, 9] was 2.58 h, the Cmax ([2]; male, C57BL/6, mouse, plasma, po, 50 mg/kg, Group 3 (suspension, Labrafil/Masine/Miglyol/water), mean, read-out: Cmax) was 92 ng/mL and the Tmax ([2]; male, C57BL/6, mouse, plasma, po, 50 mg/kg, Group 3 (suspension, Labrafil/Masine/Miglyol/water), mean, read-out: tmax) was 3.33 h. The AUCInf [2, 10] was 1163 ng·h/mL and 22064 ng·h/mL and 1379 ng·h/mL, the AUClast [2, 10] was 1148 ng·h/mL and 2355 ng·h/mL and 1267 ng·h/mL and the Cmax [2, 10] was 309 ng/mL and 156 ng/mL. For the same compound, the t1/2 [2, 10] was 1.88 h and 80.8 h and 2.08 h, the AUCInf [2, 11] was 2962 ng·h/mL and 2817 ng·h/mL and the AUClast [2, 11] was 2862 ng·h/mL and 2513 ng·h/mL. For the same compound, the Cmax [2, 11] was 483 ng/mL and 378 ng/mL, the t1/2 [2, 11] was 2.17 h and 3.61 h and the “AUClast Ratio (Metabolite/Parent)” value [2, 12] was 0.256. The “Cmax Ratio (Metabolite/Parent)” value [2, 12] was 0.211, the AUCInf [2, 13] was 621 ng·h/mL and 519 ng·h/mL and the AUClast [2, 13] was 532 ng·h/mL and 504 ng·h/mL. For the same compound, the Cmax [2, 13] was 117 ng/mL and 58.7 ng/mL, the Tmax [2, 13] was 8 h and the t1/2 [2, 13] was 3.43 h and 2.93 h and 1.38 h.
